What all share (assay type): functional
The test system of test [1] is Escherichia coli. The test is described as follows: Antibacterial activity against Escherichia coli TOP10 by E-test.
Test [2] concerns Escherichia coli. As to the kind of experiment: Antibacterial activity against Escherichia coli TOP10 containing pS1B plasmid expressing quinolone resistance determinant QnrS1 by E-test.
The subject of test [3] is Escherichia coli. As to the kind of experiment: Antibacterial activity against Escherichia coli TOP10 containing pS1A plasmid expressing quinolone resistance determinant QnrB4 by E-test.
In another test the test system is Enterobacter cloacae. The test is described as follows: Antibacterial activity against Enterobacter cloacae S1 isolate expressing quinolone resistance determinant QnrB4 by E-test.

Here are results for 6 molecules from ChEMBL document CHEMBL1157376, “Plasmid-mediated quinolone resistance determinant QnrB4 identified in France in an Enterobacter cloacae clinical isolate coexpressing a QnrS1 determinant” (2007).

Converted amounts (≈) assume the structure as drawn.

Turning to `CCn1cc(C(=O)O)c(=O)c2cc(F)c(N3CCNCC3)cc21` [NORFLOXACIN], the MIC against Escherichia coli [1] is 0.03 µg/mL (≈ 0.0939 µM); against Escherichia coli [2] it was 0.5 µg/mL (≈ 1.57 µM); against Escherichia coli [3], 0.25 µg/mL (≈ 0.783 µM); in the test with Enterobacter cloacae, more than 32 µg/mL.
With `C[C@@H]1CN(c2c(F)c(N)c3c(=O)c(C(=O)O)cn(C4CC4)c3c2F)C[C@H](C)N1` [SPARFLOXACIN], the MIC against Escherichia coli [1] is less than 0.01 µg/mL; in the test with Escherichia coli [2], 0.25 µg/mL (≈ 0.637 µM); with Escherichia coli [3], 0.03 µg/mL (≈ 0.0765 µM); against Enterobacter cloacae it was more than 32 µg/mL.
In the case of `CC1COc2c(N3CCN(C)CC3)c(F)cc3c(=O)c(C(=O)O)cn1c23` (stereo not drawn) [OFLOXACIN], the MIC is 0.25 µg/mL (≈ 0.692 µM) in the test with Escherichia coli [2] and more than 32 µg/mL against Enterobacter cloacae.
Consider `COc1c(N2C[C@@H]3CCCN[C@@H]3C2)c(F)cc2c(=O)c(C(=O)O)cn(C3CC3)c12` [MOXIFLOXACIN], for which the figures for the MIC with Escherichia coli [1], against Escherichia coli [2] and against Escherichia coli [3] were less than 0.01 µg/mL, 0.25 µg/mL (≈ 0.623 µM) and 0.12 µg/mL (≈ 0.299 µM), respectively.
On to `CCn1cc(C(=O)O)c(=O)c2ccc(C)nc21` [NALIDIXIC ACID], for which the MIC was 1 µg/mL (≈ 4.31 µM) with Escherichia coli [1], 4 µg/mL (≈ 17.2 µM) in the test with Escherichia coli [2], 2 µg/mL (≈ 8.61 µM) in the test with Escherichia coli [3] and more than 256 µg/mL with Enterobacter cloacae.
`O=C(O)c1cn(C2CC2)c2cc(N3CCNCC3)c(F)cc2c1=O` [CIPROFLOXACIN] yielded an MIC with Escherichia coli [1] of less than 0.01 µg/mL.

For orientation: MIC means the least concentration at which growth counts as inhibited. High values mean a less susceptible organism, low ones a more susceptible organism.
